By Kd is commonly meant the concentration at which binding is half-saturated. A word on the Ki: it is a dissociation constant, usually derived from enzyme kinetics or from competition with a known ligand.

Entries after “also recorded” stand apart in the source; their conditions may differ. Read-outs that look alike come from different tables or passages of the source.

The text below walks through data of patent US9139615B2, “High-affinity, dimeric inhibitors of PSD-95 as efficient neuroprotectants against ischemic brain damage and for treatment of pain” (University of Copenhagen, priority 2011, dated 2015).

Data set [1] in a line: Spinal cord detection of fluorescent PSD-95 inhibitors. It is filed as in vivo, mice. Conditions: mouse, in vivo. The protocol: To investigate if AB143 and AB145 are able to enter spinal cord tissue, they were administered to the mice by intraperitoneal injection (30 mg/kg). The drug-treated mice were decapitated 30 min after injection, and the spinal cord was carefully dissected out, to which 5% trichloroacetic acid (TCA) (300 μL per 0.1 g tissue) was added and the tissue homogenized with an ultrasonic homogenizer (on ice). The homogenated tissue was vortexed and centrifuged for 10 min (20000 g at 4° C.). The supernatant was transferred to a test tube and evaporated, and the residue was reconstituted in water and its fluoresence intensity was determined by using a fluorescence plate reader (excitation/emission:470/525 nm). For quantification of the compounds, a standard curve was prepared by spiking a known amount of AB143 and AB145 into spinal cord tissue from control mice prior to homogenization, followed by work-up and analysis similar to the drug-treated mice.

The target in data set [2] is T1, PDZ1-2 of PSD-95 (Homo sapiens, UniProt P78352).
T1 construct: made in house; host or cells: E. coli BL21-DE3 pLysS
T1 sequence (P78352 with tags, fused parts or gaps): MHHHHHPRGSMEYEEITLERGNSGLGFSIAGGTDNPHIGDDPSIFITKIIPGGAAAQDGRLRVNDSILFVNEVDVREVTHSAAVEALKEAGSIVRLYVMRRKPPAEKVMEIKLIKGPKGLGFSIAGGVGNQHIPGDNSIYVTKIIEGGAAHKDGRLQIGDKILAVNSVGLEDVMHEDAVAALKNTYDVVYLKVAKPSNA
Briefly: Fluorescence polarization (FP) assay, affinity for PDZ1-2 of PSD-95. It is filed as binding. As to conditions: for Ki: probe AB143 0.5 nM, PDZ1-2 […], IC50 converted to Ki. An excerpt: VI.i. Fluorescence Polarization (FP) Assay: as described below, Example 1 provides a convenient and reliable way to monitor and evaluate the inhibitor properties of a PSD-95 inhibitor of the invention. The FP assay allows a wide range of peptide analogues to be tested and compared with respect to their interaction with PDZ domains, and their specificity with respect to the tandem PDZ1-2 of PSD-95. PDZ1-2 is expressed using standard recombinant DNA technology known to those skilled in the art.
More specifically, the assay is based on a heterologous competition binding assay, where the affinity measured as IC50 of a given (non-fluorescent) peptide analogue for a PDZ domain is measured in the presence of a fixed concentration of a fluorescent labeled dimeric ligand (AB143; FIG. 4). Determined IC50 values are converted to Ki values (Nikolovska-Coleska et al, Anal. Biochem. 2004, 332, p. 261-273). The 5-FAM fluorophore may be attached to the dimeric ligand by coupling with HATU or HBTU.
The cDNA coding for PSD-95 PDZ1-2 tandem (corresponding to residues 61-249 in the human full-length PSD95α without exon 4b) were amplified by inverted PCR and cloned in a modified His-tagged pRSET vector (Invitrogen, Carlsbad, Calif., USA). The encoded PDZ1-2 peptide further comprised the sequence, […] (SEQ ID NO: 14), which was used as a tag for purification (His-tag), and the DNA coding sequences and encoded proteins are designated as follows: HIS-PDZ1-2 DNA [SEQ ID NO: 1] encoding HIS-PDZ1-2 protein [SEQ ID NO: 2]. Competent E. coli bacteria (BL21-DE3, pLysS) were transformed with PDZ1-2 expressing construct and grown overnight on agar plates containing ampicillin (100 μg/mL) and chloramphenicol (35 μg/mL) at 37° C. Colonies were picked and used to inoculate bacterial cultures (LB medium with 50 μg/mL ampicillin). These were shaken while being incubated at 37° C. until A600 of the culture reached 0.45, at which point 1 mM isopropyl β-D-1-thiogalactopyranoside was added. Induced cultures were incubated over night at 30° C. (PDZ1-2). Cells were harvested by spinning at 10,000 g for 10 min at 4° C. and re-suspended in lysis buffer (50 mM Tris/HCL pH 7.5, 1 mM PMSF, 25 μg/ml DNAse, 40 mM Mg2SO4). The cells were destroyed using a cell disruptor apparatus at 26 KPsi. The cell lysate was spun down at 35,000 g for 1 hour and the supernatant filtered with a 0.45 μm and a 0.22 μm filter. Purification of expressed PDZ1-2 peptide was performed with first a nickel (II)-charged column (HisTrap™ HP, GE Healthcare, UK) equilibrated with Tris-buffer (Tris/HCl buffer 50 mM, pH 7.5) followed by gel-filtration. For gel-filtration the PDZ1-2 sample was loaded on a Superdex™ 75 HR 10/30 column (GE Healthcare, UK) equilibrated with Tris buffer (20 mM Tris/HCL, pH 7.5) with a constant flow rate at 0.5 mL/min. The relevant fractions were analyzed on a SDS-PAGE gel stained by a standard silver staining protocol. The final purification was analyzed by electrospray ionization liquid chromatography-mass spectrometry (ESI-LC/MS) to get the exact molecular weight and thereby verify the identity of the PDZ1-2 domain. Molar extinction coefficients were found by amino acids analysis (Alphalyse, Odense, Denmark) and thereafter used for measuring protein concentrations. […]
An in vitro affinity measurement assay was developed based on the fluorescence polarization principle in order to provide affinity constants (Ki values) between synthesized ligands (e.g. dimeric inhibitors) and PDZ1-2 of PSD-95. […]

The subject of data set [3] is CFA-induced mechanical allodynia/hyperalgesia. The experiment in a line: Complete Freund's adjuvant (CFA) inflammatory pain, von Frey test. The class given is in vivo, mice.

On to `CC[C@H](C)[C@H](NC(=O)CCOCCOCCOCCOCCOCCOCCOCCC(=O)N[C@H](C(=O)N[C@@H](CCC(=O)O)C(=O)N[C@@H](CO)C(=O)N[C@@H](CC(=O)O)C(=O)N[C@H](C(=O)O)C(C)C)[C@@H](C)CC)C(=O)N[C@@H](CCC(=O)O)C(=O)N[C@@H](CO)C(=O)N[C@@H](CC(=O)O)C(=O)N[C@H](C(=O)O)C(C)C` [AB122, PEG6(IESDV)2], for which the “ability to enter spinal cord tissue (concluded from fluorescent surrogates)” value (shortened to “ability to enter spinal cord tissue”) in data set [1] is recorded as “able to reach their target, PSD-95, in the spinal cord”.

Take `CC[C@H](C)[C@H](NC(=O)CCOCCOCCNCCOCCOCCC(=O)N[C@H](C(=O)N[C@@H](CCC(=O)O)C(=O)N[C@H](C(=O)N[C@@H](C)C(=O)N[C@H](C(=O)O)C(C)C)[C@@H](C)O)[C@@H](C)CC)C(=O)N[C@@H](CCC(=O)O)C(=O)N[C@H](C(=O)N[C@@H](C)C(=O)N[C@H](C(=O)O)C(C)C)[C@@H](C)O` [AB141, NPEG4(IETAV)2]: the “ability to enter spinal cord tissue” value in data set [1] is “able to reach their target, PSD-95, in the spinal cord”.

For the compound `CC[C@H](C)[C@H](NC(=O)CCOCCOCCOCCOCCOCCC(=O)N[C@H](C(=O)N[C@@H](CCC(=O)O)C(=O)N[C@@H](CO)C(=O)N[C@@H](CC(=O)O)C(=O)N[C@H](C(=O)O)C(C)C)[C@@H](C)CC)C(=O)N[C@@H](CCC(=O)O)C(=O)N[C@@H](CO)C(=O)N[C@@H](CC(=O)O)C(=O)N[C@H](C(=O)O)C(C)C` [AB123, PEG4(IESDV)2], the “ability to enter spinal cord tissue” value in data set [1] was “able to reach their target, PSD-95, in the spinal cord”.

`CC[C@H](C)[C@H](NC(=O)CCOCCOCCN(CCOCCOCCC(=O)N[C@H](C(=O)N[C@@H](CCC(=O)O)C(=O)N[C@H](C(=O)N[C@@H](C)C(=O)N[C@H](C(=O)O)C(C)C)[C@@H](C)O)[C@@H](C)CC)C(=O)c1ccc2c(c1)C(=O)OC21c2ccc(O)cc2Oc2cc(O)ccc21)C(=O)N[C@@H](CCC(=O)O)C(=O)N[C@H](C(=O)N[C@@H](C)C(=O)N[C@H](C(=O)O)C(C)C)[C@@H](C)O` [AB143, F-NPEG4(IETAV)2]: the Kd in data set [2] (saturation binding, probe 0.5 nM, TBS pH 7.4, read-out: Kd towards PDZ1-2 of PSD-95) came to 7.8 ± 0.11 nM. For the same compound, the “fluorescence in spinal cord tissue compared to saline-treated mice” value in data set [1] is “clear and distinct fluorescence increase”.

Turning to `CC[C@H](C)[C@H](NC(=O)CCOCCOCCOCCOCCOCCC(=O)N[C@H](C(=O)N[C@@H](CCC(=O)O)C(=O)N[C@H](C(=O)N[C@@H](C)C(=O)N[C@H](C(=O)O)C(C)C)[C@@H](C)O)[C@@H](C)CC)C(=O)N[C@@H](CCC(=O)O)C(=O)N[C@H](C(=O)N[C@@H](C)C(=O)N[C@H](C(=O)O)C(C)C)[C@@H](C)O` [AB125, PEG4(IETAV)2], the Ki in data set [2] (heterologous competition, TBS pH 7.4, read-out: Ki ± SEM, affinity towards PDZ1-2 of PSD-95) was roughly 9.5 nM. Moreover, the CFA-induced hyperalgesia entry in data set [3] (1, 3 and 10 mg/kg given 24 hours after CFA-injection, at 72 hours) is “significantly reversed”; in data set [3] (3 and 10 mg/kg given 24 hours after CFA-injection, after 1 hour), “significant reversal of the CFA-induced hyperalgesia”; in data set [3] (3 and 10 mg/kg given 24 hours after CFA-injection, after 24 hours) it was “significant reversal was still observed”; in data set [3] (3 and 10 mg/kg, given simultaneously with CFA, after 1 hour), “significantly reversed the CFA-induced hyperalgesia”; in data set [3] (3 and 10 mg/kg, given simultaneously with CFA, after 24 hours) it was “significant reversal was still observed”. For the same compound, the “CFA-induced pain response (paw withdrawal threshold)” value in data set [3] (3, 10 and 30 mg/kg i.p. simultaneously with CFA, 24 hours afterwards) is “reduces CFA-induced pain response; also recorded: differed significantly from saline-treated mice”. Besides, the “duration of reversal of CFA-induced hyperalgesia” value in data set [3] (administered 24 hours after CFA treatment) was “at least 3 days”. Also, the CFA-induced mechanical hyperalgesia result in data set [3] (administered concurrently with CFA, 1 hour and 24 hours after treatment) is “prevented the development of CFA-induced mechanical hyperalgesia”.

As for `CC(C)[C@H](NC(=O)[C@H](CC(=O)O)NC(=O)[C@@H](NC(=O)[C@H](CCC(=O)O)NC(=O)[C@H](CCCCNC(=O)[C@H](CCCNC(=N)N)NC(=O)[C@H](CCCNC(=N)N)NC(=O)[C@H](CCCNC(=N)N)NC(=O)[C@H](CCC(N)=O)NC(=O)[C@H](CCCNC(=N)N)NC(=O)[C@H](CCCNC(=N)N)NC(=O)[C@H](CCCCN)NC(=O)[C@H](CCCCN)NC(=O)[C@H](CCCNC(=N)N)NC(=O)CNC(=O)[C@@H](N)Cc1ccc(O)cc1)NC(=O)CCOCCOCCOCCOCCOCCC(=O)N[C@@H](CCCCNC(=O)[C@H](CCCNC(=N)N)NC(=O)[C@H](CCCNC(=N)N)NC(=O)[C@H](CCCNC(=N)N)NC(=O)[C@H](CCC(N)=O)NC(=O)[C@H](CCCNC(=N)N)NC(=O)[C@H](CCCNC(=N)N)NC(=O)[C@H](CCCCN)NC(=O)[C@H](CCCCN)NC(=O)[C@H](CCCNC(=N)N)NC(=O)CNC(=O)[C@@H](N)Cc1ccc(O)cc1)C(=O)N[C@@H](CCC(=O)O)C(=O)N[C@H](C(=O)N[C@@H](CC(=O)O)C(=O)N[C@H](C(=O)O)C(C)C)[C@@H](C)O)[C@@H](C)O)C(=O)O` [AB144_H], the Ki in data set [2] (Ki ± SEM, affinity towards PDZ1-2 of PSD-95, heterologous competition, TBS pH 7.4) came out at 24 ± 2 nM. The “fold lower affinity than AB144” value in data set [2] (PDZ1-2 of PSD-95, from Ki) is roughly 5 fold.
